Results taken from PubChem BioAssay (NCI).
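Five compound concentrations were applied to cells in 96-well plates for 48 hours; endpoints were derived by simple linear interpolation of the resulting dose-response curve. Abbreviation: GI50, concentration required for 50% inhibition of growth. TGI marks complete inhibition of growth.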

Key:
Assay in all cases: NCI tumour cell line growth inhibition, 48 h
OVCAR-5 ovarian = test system: OVCAR-5 ovarian
SK-MEL-28 melanoma = test system: SK-MEL-28 melanoma
RXF 393 renal = test system: RXF 393 renal
TK-10 renal = test system: TK-10 renal
HCT-15 colon = test system: HCT-15 colon
MDA-MB-435 = test system: MDA-MB-435
SK-OV-3 ovarian = test system: SK-OV-3 ovarian
K-562 leukemia = test system: K-562 leukemia
MALME-3M melanoma = test system: MALME-3M melanoma
U251 CNS = test system: U251 CNS
MOLT-4 leukemia = test system: MOLT-4 leukemia
NCI-H226 lung = test system: NCI-H226 lung
SNB-75 CNS = test system: SNB-75 CNS
NCI-H460 lung = test system: NCI-H460 lung
IGROV1 ovarian = test system: IGROV1 ovarian
M14 melanoma = test system: M14 melanoma
BT-549 breast = test system: BT-549 breast
T-47D breast = test system: T-47D breast
NCI-H522 lung = test system: NCI-H522 lung
NCI-H23 lung = test system: NCI-H23 lung
EKVX NSCLC = test system: EKVX NSCLC
RPMI-8226 leukemia = test system: RPMI-8226 leukemia
UACC-257 melanoma = test system: UACC-257 melanoma
DU-145 prostate = test system: DU-145 prostate
ACHN renal = test system: ACHN renal
COLO 205 colon = test system: COLO 205 colon
OVCAR-3 ovarian = test system: OVCAR-3 ovarian
MCF7 breast = test system: MCF7 breast
HOP-92 NSCLC = test system: HOP-92 NSCLC
SW-620 colon = test system: SW-620 colon
SF-539 CNS = test system: SF-539 CNS
SF-268 CNS = test system: SF-268 CNS
MDA-MB-231 breast = test system: MDA-MB-231 breast
OVCAR-8 ovarian = test system: OVCAR-8 ovarian
A549 NSCLC = test system: A549 NSCLC
LOX IMVI melanoma = test system: LOX IMVI melanoma
HCT-116 colon = test system: HCT-116 colon
UO-31 renal = test system: UO-31 renal
HT29 colon = test system: HT29 colon
786-0 renal = test system: 786-0 renal
PC-3 prostate = test system: PC-3 prostate
CCRF-CEM leukemia = test system: CCRF-CEM leukemia
A498 renal = test system: A498 renal
SF-295 CNS = test system: SF-295 CNS
OVCAR-4 ovarian = test system: OVCAR-4 ovarian
CAKI-1 renal = test system: CAKI-1 renal
NCI/ADR-RES ovarian = test system: NCI/ADR-RES ovarian
SK-MEL-5 melanoma = test system: SK-MEL-5 melanoma
HCC-2998 colon = test system: HCC-2998 colon
HOP-62 NSCLC = test system: HOP-62 NSCLC
SK-MEL-2 melanoma = test system: SK-MEL-2 melanoma
KM12 colon = test system: KM12 colon
SR leukemia = test system: SR leukemia
UACC-62 melanoma = test system: UACC-62 melanoma
SN12C renal = test system: SN12C renal
SNB-19 CNS = test system: SNB-19 CNS
HL-60(TB) leukemia = test system: HL-60(TB) leukemia
HS 578T breast = test system: HS 578T breast

CCC(=O)Nc1cc(Nc2cc(NC3CC3)n3ncc(C#N)c3n2)ccc1C
GI50 (OVCAR-5 ovarian): 0.955 µM
TGI (OVCAR-5 ovarian): 33 µM
GI50 (SK-MEL-28 melanoma): 4.02 µM
TGI (SK-MEL-28 melanoma): > 100 µM
GI50 (RXF 393 renal): 3.29 µM
TGI (RXF 393 renal): 15.5 µM
GI50 (TK-10 renal): 0.987 µM
TGI (TK-10 renal): 7.52 µM
GI50 (HCT-15 colon): 1.25 µM
TGI (HCT-15 colon): 29.6 µM
GI50 (MDA-MB-435): 2.06 µM
TGI (MDA-MB-435): 30.7 µM
GI50 (SK-OV-3 ovarian): 1.6 µM
TGI (SK-OV-3 ovarian): 9.04 µM
GI50 (K-562 leukemia): 1.1 µM
TGI (K-562 leukemia): > 100 µM
GI50 (MALME-3M melanoma): 2.2 µM
TGI (MALME-3M melanoma): 69.3 µM
GI50 (U251 CNS): 0.94 µM
TGI (U251 CNS): > 100 µM
GI50 (MOLT-4 leukemia): 3.93 µM
TGI (MOLT-4 leukemia): 52.2 µM
GI50 (NCI-H226 lung): 1.51 µM
TGI (NCI-H226 lung): 16.6 µM
GI50 (SNB-75 CNS): 0.0521 µM
TGI (SNB-75 CNS): 0.974 µM
GI50 (NCI-H460 lung): 0.772 µM
TGI (NCI-H460 lung): 12.3 µM
GI50 (IGROV1 ovarian): 1.27 µM
TGI (IGROV1 ovarian): 6.29 µM
TGI (M14 melanoma): 12.5 µM
GI50 (BT-549 breast): 1.11 µM
TGI (BT-549 breast): 7.45 µM
GI50 (T-47D breast): 1.05 µM
TGI (T-47D breast): 9.87 µM
GI50 (NCI-H522 lung): 2.48 µM
TGI (NCI-H522 lung): 27.1 µM
GI50 (NCI-H23 lung): 1.12 µM
TGI (NCI-H23 lung): 14.9 µM
GI50 (EKVX NSCLC): 1.16 µM
TGI (EKVX NSCLC): 45 µM
GI50 (RPMI-8226 leukemia): 1.77 µM
TGI (RPMI-8226 leukemia): 17.6 µM
GI50 (UACC-257 melanoma): 1.77 µM
TGI (UACC-257 melanoma): 53.6 µM
GI50 (DU-145 prostate): 3.96 µM
TGI (DU-145 prostate): 73.3 µM
GI50 (ACHN renal): 1.67 µM
TGI (ACHN renal): 15.6 µM
GI50 (COLO 205 colon): 0.981 µM
TGI (COLO 205 colon): 16.3 µM
GI50 (OVCAR-3 ovarian): 1.1 µM
TGI (OVCAR-3 ovarian): 14.6 µM
GI50 (MCF7 breast): 0.421 µM
TGI (MCF7 breast): 10.7 µM
GI50 (HOP-92 NSCLC): 0.449 µM
TGI (HOP-92 NSCLC): 6.39 µM
GI50 (SW-620 colon): 1.28 µM
TGI (SW-620 colon): 19 µM
GI50 (SF-539 CNS): 1.81 µM
TGI (SF-539 CNS): 46.9 µM
GI50 (SF-268 CNS): 2.32 µM
TGI (SF-268 CNS): 57.4 µM
GI50 (MDA-MB-231 breast): 1.63 µM
TGI (MDA-MB-231 breast): 23.3 µM
GI50 (OVCAR-8 ovarian): 3.63 µM
TGI (OVCAR-8 ovarian): > 100 µM
GI50 (A549 NSCLC): 1.8 µM
TGI (A549 NSCLC): 17.3 µM
GI50 (LOX IMVI melanoma): 1.57 µM
TGI (LOX IMVI melanoma): 12.9 µM
GI50 (HCT-116 colon): 0.737 µM
TGI (HCT-116 colon): 12 µM
GI50 (UO-31 renal): 2.09 µM
TGI (UO-31 renal): 13.7 µM
GI50 (HT29 colon): 2.18 µM
TGI (HT29 colon): > 100 µM
GI50 (786-0 renal): 3.46 µM
TGI (786-0 renal): 43.5 µM
GI50 (PC-3 prostate): 1.73 µM
TGI (PC-3 prostate): 23.3 µM
GI50 (CCRF-CEM leukemia): 1.68 µM
TGI (CCRF-CEM leukemia): > 100 µM
GI50 (A498 renal): 0.0965 µM
TGI (A498 renal): 1.16 µM
GI50 (SF-295 CNS): 2.34 µM
TGI (SF-295 CNS): 14.8 µM
GI50 (OVCAR-4 ovarian): 1.66 µM
TGI (OVCAR-4 ovarian): 67.1 µM
GI50 (CAKI-1 renal): 0.43 µM
TGI (CAKI-1 renal): 3.29 µM
GI50 (NCI/ADR-RES ovarian): 2.99 µM
TGI (NCI/ADR-RES ovarian): 30.3 µM
GI50 (SK-MEL-5 melanoma): 1.6 µM
TGI (SK-MEL-5 melanoma): 9.15 µM
GI50 (HCC-2998 colon): 2.46 µM
TGI (HCC-2998 colon): 18.9 µM
GI50 (HOP-62 NSCLC): 1.84 µM
TGI (HOP-62 NSCLC): 25.7 µM
GI50 (SK-MEL-2 melanoma): 2.65 µM
TGI (SK-MEL-2 melanoma): 18.6 µM
GI50 (KM12 colon): 1.81 µM
TGI (KM12 colon): 47 µM
GI50 (SR leukemia): 1.78 µM
TGI (SR leukemia): > 100 µM
GI50 (UACC-62 melanoma): 1.22 µM
TGI (UACC-62 melanoma): 12.1 µM
GI50 (SN12C renal): 3.16 µM
TGI (SN12C renal): > 100 µM
GI50 (SNB-19 CNS): 1.77 µM
TGI (SNB-19 CNS): > 100 µM
GI50 (HL-60(TB) leukemia): 0.6 µM
TGI (HL-60(TB) leukemia): 12.3 µM
GI50 (HS 578T breast): 0.216 µM
TGI (HS 578T breast): 1.03 µM
